Measurements reported in paper PMC6410080 (Viruses, 2019).
Where two headings read alike, the source gives them in different places.

How the values were obtained:
SFV [1] = test: microbe, parasite or virus in culture; type: cell-based, Semliki Forest virus; conditions: for % inhibition (SFV screen): 10 µM
DENV-2 = DENV-2 infection assay / secondary screen (E protein staining); type: cell-based, dengue virus serotype 2; conditions: for % inhibition (DENV-2 screen): 10 µM
HeLa Kyoto cells [2] = conditions: 10 µM
Huh7 cells [3] = conditions: 10 µM
SINV = test: microbe, parasite or virus in culture; type: cell-based, Sindbis virus; conditions: read-out: IC50 SINV
DENV-1 = test: microbe, parasite or virus in culture; type: cell-based, dengue virus
DENV-3 = test: microbe, parasite or virus in culture; type: cell-based, dengue virus
ZIKV [4] = test: microbe, parasite or virus in culture; type: cell-based, Zika virus
YF17D = test: organism not typed; type: cell-based, yellow fever 17D
HCV = test: microbe, parasite or virus in culture; type: cell-based, hepatitis C virus
VSV VLP = test: microbe, parasite or virus in culture; type: cell-based, vesicular stomatitis virus; conditions: read-out: IC50 VSV
RABV VLP = test: microbe, parasite or virus in culture; type: cell-based, rabies virus; conditions: read-out: IC50 RABV
H5N1 VLP = test: microbe, parasite or virus in culture; type: cell-based, influenza H5N1; conditions: for IC50: read-out: IC50 H5N1
EBOV VLP = test: microbe, parasite or virus in culture; type: cell-based, Ebola virus
HIV-1 = test: microbe, parasite or virus in culture; type: cell-based, human immunodeficiency virus type 1; conditions: for IC50: read-out: IC50 HIV
HSV-1 = test: microbe, parasite or virus in culture; type: cell-based, herpes simplex virus 1; conditions: for IC50: read-out: IC50 HSV (Vero)
VACV = test: microbe, parasite or virus in culture; type: cell-based, vaccinia virus; conditions: for IC50: read-out: IC50 VACV
SFV [5] = type: cell-based, Semliki Forest virus
viruses/VLPs tested = type: cell-based
HeLa Kyoto cells [6] = test system: HeLa Kyoto cells
Huh7 cells [7] = conditions: human
in vitro [8] = conditions: human, % viability (SFV screen)
in vitro [9] = conditions: human
ZIKV [10] = conditions: AG129 mice
[11] = test system: Renilla luciferase expression (protein synthesis); type: cell-based
Huh7 cells [12] = test: MTT assay, Huh7 cells; conditions: for TC50 DENV-2 (7 + 17 h): Huh7, compounds 7 h then compound-free media 17 h; for TC50 DENV-2 (24 h): Huh7, compounds 24 h
[13] = Huh7, MOI 1, 24 h, compared to DMSO-treated controls
[14] = Huh7, compounds 7 h then media replaced for 17 h, read-out: IC50 DENV-2 (7 + 17 h)
[15] = Huh7, compounds for entire 24 h, read-out: IC50 DENV-2 (24 h)

## C=CCN1CC[C@]23c4c5ccc(O)c4O[C@@H]2/C(=N/N=C2\CC[C@@]4(O)C6Cc7ccc(O)c8c7[C@@]4(CCN6CC=C)[C@@H]2O8)CC[C@@]3(O)C1C5.Cl.Cl [Naloxonazine dihydrochloride]
SFV [1]
  % inhibition (SFV screen): 70.80%
DENV-2
  % inhibition (DENV-2 screen): 16.23%
HeLa Kyoto cells [2]
  % viability (SFV screen): 87.36%
Huh7 cells [3]
  % viability (DENV-2 screen): 111.66%

## C=C1C(=O)O[C@H]2[C@H]1CC/C(C)=C/CC[C@@]1(C)O[C@@H]21 [Parthenolide]
SFV [1]
  % inhibition (SFV screen): 98.23%
SFV [1]; Semliki Forest virus, HeLa Kyoto, read-out: IC50 SFV (7 h)
  IC50: 3.3 µM
SFV [1]; Semliki Forest virus, M-HeLa, 7 h, read-out: % inhibition (SFV screen)
  inhibition at 10 µM: 101%
DENV-2; Dengue virus, DENV2, Huh-7, 24 h, read-out: % inhibition (DENV-2 screen)
  inhibition at 10 µM: 91.2%
DENV-2; Dengue virus, DENV2, Huh-7, 24 h, read-out: IC50 DENV-2 (7 + 17 h)
  IC50: 12.2 µM
DENV-2; Dengue virus, DENV2, Huh-7, 24 h, read-out: IC50 DENV-2 (24 h)
  IC50: 7.5 µM
SINV; Sindbis virus, HeLa Kyoto
  IC50: 3.2 µM
DENV-1; Dengue virus, DENV1, Huh-7, read-out: IC50 DENV-1
  IC50: 10 µM
DENV-3; Dengue virus, DENV3, Huh-7, read-out: IC50 DENV-3
  IC50: 15.8 µM
ZIKV [4]; Zika virus, Huh-7, read-out: IC50 ZIKV
  IC50: 6.1 µM
YF17D; Huh-7, read-out: IC50 YF17D
  IC50: 6.4 µM
HCV; Hepatitis C virus, Huh7.5, read-out: IC50 HCV
  IC50: 5.6 µM
VSV VLP; Vesicular stomatitis virus, HeLa Kyoto, 24 h
  IC50: 2.6 µM
RABV VLP; Lyssavirus rabies, HeLa Kyoto, 24 h
  IC50: 3.8 µM
H5N1 VLP; Influenza A virus, H5N1, HeLa Kyoto, 48 h
  IC50: 19.4 µM
EBOV VLP
  IC50 EBOV: Toxic
HIV-1; Human immunodeficiency virus 1, 24 h
  IC50: 3.7 µM
HSV-1; virus, Vero cells, 8 h
  IC50 HSV (Vero): No inhibition
VACV; Orthopoxvirus vaccinia, HeLa Kyoto, 8 h
  IC50: 5 µM
SFV [5]
  Activity when added before SFV or 30 and 60 min after internalisation: minor but reproducible decrease in activity
  Time of Addition: Before and after fusion
viruses/VLPs tested
  Viruses Inhibited: Unclear pattern
HeLa Kyoto cells [6]; human, 7 h
  TC50 SFV (7 h): 11.7 µM
  TC50 SFV (7h): 11700 µM
Huh7 cells [7]
  TC50 DENV-2 (7 + 17 h): 35.8 µM
Huh7 cells [7]; 24 h
  TC50 DENV-2 (24 h): 11.9 µM
HeLa Kyoto cells [2]; human
  % viability (SFV screen): 74.22%
In vitro [8]
  viability at 10 µM: 56.8%
In vitro [9]
  viability at 10 µM: 71.4%

## CC(C)OC(=O)[C@H](C)N[P@](=O)(OC[C@H]1O[C@@H](n2ccc(=O)[nH]c2=O)[C@](C)(F)[C@@H]1O)Oc1ccccc1 [Sofosbuvir]
ZIKV [10]; immunofocus assay
  Infectious virus in the blood at day 7 p.i.: cleared infectious virus from the blood by day 7
ZIKV [10]; qRT-PCR and immunofocus assay, vs untreated
  ZIKV blood titres at day 1 p.i.: significantly reduced blood titres

## O=[N+]([O-])c1ccc2c(c1)S(=O)(=O)C=C2 [Stattic]
SFV [1]
  % inhibition (SFV screen): 95.82%
DENV-2; [13]
  % inhibition (DENV-2 screen): 87.08%
DENV-2; [14]
  IC50: 3 µM
DENV-2; [15]
  IC50: 0.9 µM
SINV
  IC50: 3.6 µM
ZIKV [4]; read-out: IC50 ZIKV
  IC50: 4 µM
YF17D; read-out: IC50 YF17D
  IC50: 4.9 µM
HCV; read-out: IC50 HCV
  IC50: 3.7 µM
RABV VLP
  IC50: 3.2 µM
H5N1 VLP
  IC50 H5N1: Toxic
EBOV VLP
  IC50 EBOV: Toxic
HIV-1
  IC50: 3.2 µM
HSV-1
  IC50: 5.2 µM
VACV
  IC50: 4.1 µM
[11]
  Decrease of Renilla signal (protein synthesis): more than 50%
  Inhibition of protein synthesis at lower concentrations: lose their inhibitory activity on protein synthesis
SFV [5]
  Activity when added before SFV or 30 and 60 min after internalisation: No difference
  Time of Addition: After fusion
viruses/VLPs tested
  Viruses Inhibited: All tested
HeLa Kyoto cells [6]
  TC50 SFV (7 h): 7.8 µM
  TC50 SFV (7h): 7800 µM
HeLa Kyoto cells [2]
  % viability (SFV screen): 64.89%
Huh7 cells [3]
  % viability (DENV-2 screen): 60.49%
Huh7 cells [12]
  TC50 DENV-2 (7 + 17 h): 17.3 µM
  TC50 DENV-2 (24 h): 9.7 µM

## CC(=O)/C=C1\C(=O)N(C)c2ccccc21 [Supercinnamaldehyde]
SFV [1]
  % inhibition (SFV screen): 89.06%
DENV-2; [13]
  % inhibition (DENV-2 screen): 64.49%
DENV-2; [14]
  IC50: 15.4 µM
DENV-2; [15]
  IC50: 15 µM
SINV
  IC50: 24.9 µM
DENV-1; read-out: IC50 DENV-1
  IC50: ~22.7 µM
DENV-3; read-out: IC50 DENV-3
  IC50: 12.2 µM
ZIKV [4]
  IC50 ZIKV: No inhibition
YF17D; read-out: IC50 YF17D
  IC50: 7.6 µM
HCV; read-out: IC50 HCV
  IC50: 15.8 µM
VSV VLP
  IC50: 14.6 µM
RABV VLP
  IC50: 21.6 µM
H5N1 VLP
  IC50: 17.5 µM
EBOV VLP; read-out: IC50 EBOV
  IC50: 21.2 µM
HIV-1
  IC50 HIV: No inhibition
HSV-1
  IC50: 25.2 µM
VACV
  IC50 VACV: No inhibition
SFV [5]
  Activity when added before SFV or 30 and 60 min after internalisation: No difference
  Time of Addition: After fusion
HeLa Kyoto cells [6]
  TC50 SFV (7 h): 40.5 µM
  TC50 SFV (7h): 40500 µM
HeLa Kyoto cells [2]
  % viability (SFV screen): 69.48%
Huh7 cells [3]
  % viability (DENV-2 screen): 90.32%
Huh7 cells [12]
  TC50 DENV-2 (7 + 17 h): 59.6 µM
  TC50 DENV-2 (24 h): 25.8 µM
